From patent US20050256171A1, “Pyrrolidine derivatives as tryptase inhibitors” (Altana Pharma A G, priority 2002, published 2005)
Structures can show the parent of a compound that is named as a salt.

biological target: human tryptase; experiment: Inhibition of human tryptase (apparent dissociation constant, chromogenic substrate tos-Gly-Pro-Arg-pNA); assay type: biochemical; details: pKiapp = -log Kiapp (mol/l); in the presence of substrate; heparin 0.1-50 μg/ml
Source text: The documented pathophysiological effects of mast cell tryptase are brought about directly by the enzymatic activity of the protease. Accordingly, they are reduced or blocked by inhibitors which inhibit the enzymatic activity of tryptase. A suitable measure of the affinity of a reversible inhibitor for the target protease is the equilibrium dissociation constant Ki of the enzyme/inhibitor complex. This value of Ki can be determined via the influence of the inhibitor on the tryptase-induced cleavage of a chromogenic peptide-p-nitroanilide substrate or of a fluorogenic peptide-aminomethylcoumarin substrate.
The dissociation constants for the tryptase/inhibitor complexes are determined under equilibrium conditions in accordance with the general proposals of Bieth (Bieth J G, Pathophysiological Interpretation of kinetic constants of protease inhibitors, Bull. Europ. Physiopath. Resp. 16:183-195,1980) and the methods of Sommerhoff et al. (Sommerhoff C P et al., A Kazal-type Inhibitor of human mast cell tryptase: Isolation from the medical leech Hirudo medicinalis, characterization, and sequence analysis, Biol. Chem. Hoppe-Seyler 375: 685-694, 1994).
Human tryptase is prepared pure from lung tissue or is prepared by recombination; the specific activity of the protease which has been determined by titration is normally more than 85% of the theoretical value. Constant amounts of the tryptase are incubated in the presence of heparin (0.1-50 μg/ml) to stabilize the protease with increasing amounts of the inhibitors. After equilibrium has been reached between the reactants, the remaining enzymic activity is determined after addition of the peptide-p-nitroanilide substrate tos-Gly-Pro-Arg-pNA, whose cleavage is followed at 405 nm for 3 min. Alternatively, the remaining enzymatic activity can also be determined using fluorogenic substrates. The apparent dissociation constants Klapp (i.e. in the presence of substrate) are then found by nonlinear regression by fitting the enzyme rates to the general equation for reversible inhibitors (Morrison J F, Kinetics of the reversible inhibition of enzyme catalysed reactions by tight-binding inhibitors, Biochim. Biophys. Acta 185, 269-286, 1969): Vl/V0=1−{Et+It+Klapp−[(Et+It+Klapp)^2−4EtIt]^1/2}/2Et
In this, Vl and V0 are the rates respectively in the presence and absence of the inhibitor and Et and It are the concentrations of tryptase and of the inhibitor.
The apparent dissociation constants found for the compounds of the invention are evident from the following table A, in which the numbers of the compounds correspond to the numbers of the compounds in the examples [pKlapp=−logKlapp(mol/l)].

Row | pKiapp | SMILES
1 | 6.57 | COC(=O)Cc1cc(C#CCOC(=O)NCc2ccc(N)nc2)cc(C#CCOC(=O)NC2CC(C(=O)OC)N(C(=O)CCc3ccc(CN)cc3)C2)c1 (stereo not shown) [Compound 4, dihydrochloride]
2 | 6.00 | COC(=O)Cc1cc(C#CCOC(=O)NCc2ccnc(N)c2)cc(C#CCOC(=O)NC2CC(C(=O)OC)N(C(=O)CCc3ccc(CN)cc3)C2)c1 (stereo not shown) [Compound 5, dihydrochloride]
3 | 7.80 | COC(=O)Cc1cc(C#CCOC(=O)NCc2ccc(N)nc2)cc(C#CCOC(=O)NC2CC(C(=O)OC)N(C(=O)CCc3cccc(CN)c3)C2)c1 (stereo not shown) [Compound 3, dihydrochloride]
4 | 7.19 | COC(=O)Cc1cc(C#CCOC(=O)NCc2ccnc(N)c2)cc(C#CCOC(=O)NC2CC(C(=O)OC)N(C(=O)CCc3cccc(CN)c3)C2)c1 (stereo not shown) [Compound 6, dihydrochloride]
